According to ChEMBL document CHEMBL1201862, “PubChem BioAssay data set” (2004):
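Test compounds were applied to cells in 96-well plates for 48 hours at 5 doses. At the GI50, growth is halved.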 Activity calls are given as the source filed them. Cut-off read from the data, not from the text of the source: active = GI50 up to about 1.1 µM and inactive = higher.

Tests used:
Experiment in all cases: DTP human tumour cell line panel, 48 h
NCI-H23 = tested on: NCI-H23
IGROV-1 = tested on: IGROV-1
UACC-257 = tested on: UACC-257
ACHN = tested on: ACHN
U-251 = tested on: U-251
HT-29 = tested on: HT-29
UO-31 = tested on: UO-31
HCC 2998 = tested on: HCC 2998
CCRF-CEM = tested on: CCRF-CEM
RPMI-8226 = tested on: RPMI-8226
NCI/ADR-RES = tested on: NCI/ADR-RES
NCI-H522 = tested on: NCI-H522
SK-MEL-2 = tested on: SK-MEL-2
SF-295 = tested on: SF-295
LOX IMVI = tested on: LOX IMVI
HOP-92 = tested on: HOP-92
OVCAR-5 = tested on: OVCAR-5
SR = tested on: SR
EKVX = tested on: EKVX
RXF 393 = tested on: RXF 393
HCT-116 = tested on: HCT-116
SF-268 = tested on: SF-268
MDA-MB-231 = tested on: MDA-MB-231
SK-MEL-5 = tested on: SK-MEL-5
MOLT-4 = tested on: MOLT-4
NCI-H226 = tested on: NCI-H226
NCI-H460 = tested on: NCI-H460
A549 = tested on: A549
A498 = tested on: A498
MDA-N = tested on: MDA-N
M14 = tested on: M14
CAKI-1 = tested on: CAKI-1
T47D = tested on: T47D
K562 = tested on: K562
SW-620 = tested on: SW-620
786-0 = tested on: 786-0
Malme-3M = tested on: Malme-3M
OVCAR-3 = tested on: OVCAR-3
UACC-62 = tested on: UACC-62
SNB-19 = tested on: SNB-19
DU-145 = tested on: DU-145
TK-10 = tested on: TK-10
KM12 = tested on: KM12
MDA-MB-435 = tested on: MDA-MB-435
SK-MEL-28 = tested on: SK-MEL-28
OVCAR-8 = tested on: OVCAR-8
HOP-62 = tested on: HOP-62
HL-60 = tested on: HL-60
BT-549 = tested on: BT-549
SN12C = tested on: SN12C
PC-3 = tested on: PC-3
HCT-15 = tested on: HCT-15
Hs-578T = tested on: Hs-578T
SF-539 = tested on: SF-539
COLO 205 = tested on: COLO 205
SK-OV-3 = tested on: SK-OV-3
SNB-75 = tested on: SNB-75
OVCAR-4 = tested on: OVCAR-4
MCF7 = tested on: MCF7

Cc1cc(O)nc(/N=C(\N)Nc2ccc(Cl)cc2)n1
GI50 (NCI-H23): > 100 µM (inactive) | GI50 (IGROV-1): > 100 µM (inactive) | GI50 (UACC-257): > 100 µM (inactive) | GI50 (ACHN): > 100 µM (inactive) | GI50 (U-251): > 100 µM (inactive) | GI50 (HT-29): > 100 µM (inactive) | GI50 (UO-31): > 100 µM (inactive) | GI50 (HCC 2998): > 100 µM (inactive) | GI50 (CCRF-CEM): > 100 µM (inactive) | GI50 (RPMI-8226): > 100 µM (inactive) | GI50 (NCI/ADR-RES): > 100 µM (inactive) | GI50 (NCI-H522): > 100 µM (inactive) | GI50 (SK-MEL-2): > 100 µM (inactive) | GI50 (SF-295): > 100 µM (inactive) | GI50 (LOX IMVI): > 100 µM (inactive) | GI50 (HOP-92): > 100 µM (inactive) | GI50 (OVCAR-5): > 100 µM (inactive) | GI50 (SR): > 100 µM (inactive) | GI50 (EKVX): > 100 µM (inactive) | GI50 (RXF 393): > 100 µM (inactive) | GI50 (HCT-116): > 100 µM (inactive) | GI50 (SF-268): > 100 µM (inactive) | GI50 (MDA-MB-231): > 100 µM (inactive) | GI50 (SK-MEL-5): > 100 µM (inactive) | GI50 (MOLT-4): > 100 µM (inactive) | GI50 (NCI-H226): > 100 µM (inactive) | GI50 (NCI-H460): > 100 µM (inactive) | GI50 (A549): > 100 µM (inactive) | GI50 (A498): > 100 µM (inactive) | GI50 (MDA-N): > 100 µM (inactive) | GI50 (M14): > 100 µM (inactive) | GI50 (CAKI-1): > 100 µM (inactive) | GI50 (T47D): > 100 µM (inactive) | GI50 (K562): > 100 µM (inactive) | GI50 (SW-620): > 100 µM (inactive) | GI50 (786-0): > 100 µM (inactive) | GI50 (Malme-3M): > 100 µM (inactive) | GI50 (OVCAR-3): > 100 µM (inactive) | GI50 (UACC-62): > 100 µM (inactive) | GI50 (SNB-19): > 100 µM (inactive) | GI50 (DU-145): > 100 µM (inactive) | GI50 (TK-10): > 100 µM (inactive) | GI50 (KM12): > 100 µM (inactive) | GI50 (MDA-MB-435): > 100 µM (inactive) | GI50 (SK-MEL-28): > 100 µM (inactive) | GI50 (OVCAR-8): > 100 µM (inactive) | GI50 (HOP-62): > 100 µM (inactive) | GI50 (HL-60): > 100 µM (inactive) | GI50 (BT-549): > 100 µM (inactive) | GI50 (SN12C): > 100 µM (inactive) | GI50 (PC-3): > 100 µM (inactive) | GI50 (HCT-15): > 100 µM | GI50 (Hs-578T): > 100 µM (inactive)

O=c1oc2ccc3ccccc3c2cc1-c1nc2ccc([N+](=O)[O-])cc2o1
GI50 (NCI-H23): 41.2 µM (inactive) | GI50 (IGROV-1): 28.4 µM (inactive) | GI50 (UACC-257): > 100 µM (inactive) | GI50 (ACHN): 8.57 µM (inactive) | GI50 (SF-539): 10.4 µM (inactive) | GI50 (U-251): 28.7 µM (inactive) | GI50 (HT-29): > 42.7 µM (inactive) | GI50 (UO-31): > 49.2 µM (inactive) | GI50 (HCC 2998): > 100 µM (inactive) | GI50 (CCRF-CEM): 75.2 µM (inactive) | GI50 (RPMI-8226): > 51.1 µM (inactive) | GI50 (NCI/ADR-RES): > 80.5 µM (inactive) | GI50 (NCI-H522): 18.9 µM (inactive) | GI50 (SK-MEL-2): > 64.9 µM (inactive) | GI50 (SF-295): 13.5 µM (inactive) | GI50 (LOX IMVI): 22.9 µM (inactive) | GI50 (HOP-92): 33.6 µM (inactive) | GI50 (OVCAR-5): > 100 µM (inactive) | GI50 (SR): > 71.4 µM (inactive) | GI50 (EKVX): 31.3 µM (inactive) | GI50 (RXF 393): 4.72 µM (inactive) | GI50 (HCT-116): 48.6 µM (inactive) | GI50 (SF-268): 20.5 µM (inactive) | GI50 (MDA-MB-231): 43.6 µM (inactive) | GI50 (SK-MEL-5): 10.3 µM (inactive) | GI50 (MOLT-4): > 67.6 µM (inactive) | GI50 (NCI-H226): > 51.2 µM (inactive) | GI50 (NCI-H460): 36.1 µM (inactive) | GI50 (COLO 205): > 100 µM (inactive) | GI50 (A549): 14.7 µM (inactive) | GI50 (SK-OV-3): > 30.4 µM (inactive) | GI50 (A498): 38.5 µM (inactive) | GI50 (MDA-N): > 100 µM (inactive) | GI50 (M14): 25.5 µM (inactive) | GI50 (CAKI-1): > 44.7 µM (inactive) | GI50 (T47D): 66.8 µM (inactive) | GI50 (K562): > 62.1 µM (inactive) | GI50 (SW-620): > 100 µM (inactive) | GI50 (786-0): 12.4 µM (inactive) | GI50 (SNB-75): 14.8 µM (inactive) | GI50 (Malme-3M): 59.4 µM (inactive) | GI50 (OVCAR-3): > 100 µM (inactive) | GI50 (UACC-62): 59 µM (inactive) | GI50 (SNB-19): 13.8 µM (inactive) | GI50 (DU-145): > 58.6 µM (inactive) | GI50 (TK-10): 28.3 µM (inactive) | GI50 (KM12): > 59.2 µM (inactive) | GI50 (MDA-MB-435): > 58.3 µM (inactive) | GI50 (SK-MEL-28): > 100 µM (inactive) | GI50 (OVCAR-8): > 100 µM (inactive) | GI50 (HOP-62): 10.6 µM (inactive) | GI50 (HL-60): 34.7 µM (inactive) | GI50 (BT-549): > 44.5 µM (inactive) | GI50 (SN12C): 97.5 µM (inactive) | GI50 (PC-3): > 100 µM (inactive) | GI50 (HCT-15): 69 µM | GI50 (Hs-578T): 56.6 µM (inactive) | GI50 (OVCAR-4): 22.5 µM (inactive)

CC(C)=NN/C(=N\c1ccc(Cl)cc1)NS(=O)(=O)c1cc(Cl)c(Oc2ccc([N+](=O)[O-])cc2Cl)c(Cl)c1
GI50 (NCI-H23): > 100 µM (inactive) | GI50 (IGROV-1): > 100 µM (inactive) | GI50 (UACC-257): > 100 µM (inactive) | GI50 (U-251): > 100 µM (inactive) | GI50 (HT-29): > 100 µM (inactive) | GI50 (UO-31): 56.8 µM (inactive) | GI50 (CCRF-CEM): 78.5 µM (inactive) | GI50 (RPMI-8226): 29.6 µM (inactive) | GI50 (NCI/ADR-RES): > 100 µM (inactive) | GI50 (NCI-H522): 91 µM (inactive) | GI50 (SK-MEL-2): > 100 µM (inactive) | GI50 (SF-295): 86.1 µM (inactive) | GI50 (LOX IMVI): > 100 µM (inactive) | GI50 (HOP-92): 51.8 µM (inactive) | GI50 (OVCAR-5): > 100 µM (inactive) | GI50 (EKVX): 29.4 µM (inactive) | GI50 (HCT-116): > 100 µM (inactive) | GI50 (SF-268): > 100 µM (inactive) | GI50 (MDA-MB-231): 60.1 µM (inactive) | GI50 (SK-MEL-5): > 100 µM (inactive) | GI50 (MOLT-4): 25.4 µM (inactive) | GI50 (NCI-H226): > 100 µM (inactive) | GI50 (NCI-H460): > 100 µM (inactive) | GI50 (COLO 205): > 100 µM (inactive) | GI50 (A549): 76.7 µM (inactive) | GI50 (MDA-N): > 100 µM (inactive) | GI50 (M14): 75.9 µM (inactive) | GI50 (CAKI-1): > 100 µM (inactive) | GI50 (T47D): 22.2 µM (inactive) | GI50 (K562): 53.6 µM (inactive) | GI50 (SW-620): > 100 µM (inactive) | GI50 (786-0): > 100 µM (inactive) | GI50 (Malme-3M): 70 µM (inactive) | GI50 (OVCAR-3): > 100 µM (inactive) | GI50 (UACC-62): > 100 µM (inactive) | GI50 (SNB-19): > 100 µM (inactive) | GI50 (DU-145): > 100 µM (inactive) | GI50 (TK-10): > 100 µM (inactive) | GI50 (KM12): > 100 µM (inactive) | GI50 (MDA-MB-435): 79.3 µM (inactive) | GI50 (SK-MEL-28): > 100 µM (inactive) | GI50 (OVCAR-8): > 100 µM (inactive) | GI50 (HOP-62): > 100 µM (inactive) | GI50 (HL-60): > 100 µM (inactive) | GI50 (BT-549): > 100 µM (inactive) | GI50 (SN12C): > 100 µM (inactive) | GI50 (PC-3): 87.9 µM (inactive) | GI50 (MCF7): > 100 µM (inactive) | GI50 (HCT-15): > 100 µM | GI50 (Hs-578T): 81.7 µM (inactive) | GI50 (OVCAR-4): 67.3 µM (inactive)
